Key:
Details in all cases: treatment: drug alone; 5 days
769-P [1] = experiment: minimum viability across doses, drug alone, relative to DMSO (fraction); higher = less growth inhibition
Description: (§1)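 Primary HTS: 8 RCC cell lines treated with 8 doses (up to 10 uM) of each library drug alone for 5 days; viability read by CellTiter-Glo and normalised to DMSO. GI50 was fitted with XLfit (4-parameter), AUC is the area under the dose-response curve, and minimum viability is the lowest fraction of DMSO viability across doses.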

TK-10 [2] = experiment: as above
Description: as §1

ACHN [3] = experiment: as above
Description: as §1

A498 [4] = experiment: as above
Description: as §1

CAKI-1 [5] = experiment: as above
Description: as §1

786-O [6] = experiment: as above
Description: as §1

SN12C [7] = experiment: as above
Description: as §1

UO-31 [8] = experiment: as above
Description: as §1

769-P [9] = experiment: AUC of dose-response viability curve, drug alone (arbitrary (AUC of normalised viability)); higher = less growth inhibition
Description: as §1

TK-10 [10] = experiment: as above
Description: as §1

ACHN [11] = experiment: as above
Description: as §1

A498 [12] = experiment: as above
Description: as §1

CAKI-1 [13] = experiment: as above
Description: as §1

786-O [14] = experiment: as above
Description: as §1

SN12C [15] = experiment: as above
Description: as §1

UO-31 [16] = experiment: as above
Description: as §1

769-P [17] = experiment: GI50, drug alone; higher = less potent
Description: as §1

TK-10 [18] = experiment: GI50, drug alone; higher = less potent
Description: as §1

ACHN [19] = experiment: GI50, drug alone; higher = less potent
Description: as §1

A498 [20] = experiment: GI50, drug alone; higher = less potent
Description: as §1

CAKI-1 [21] = experiment: GI50, drug alone; higher = less potent
Description: as §1

786-O [22] = experiment: GI50, drug alone; higher = less potent
Description: as §1

SN12C [23] = experiment: GI50, drug alone; higher = less potent
Description: as §1

UO-31 [24] = experiment: GI50, drug alone; higher = less potent
Description: as §1

Compound | minimum viability across doses (769-P [1]) | minimum viability across doses (TK-10 [2]) | minimum viability across doses (ACHN [3]) | minimum viability across doses (A498 [4]) | minimum viability across doses (CAKI-1 [5]) | minimum viability across doses (786-O [6]) | minimum viability across doses (SN12C [7]) | minimum viability across doses (UO-31 [8]) | AUC of dose-response viability curve (769-P [9]) | AUC of dose-response viability curve (TK-10 [10]) | AUC of dose-response viability curve (ACHN [11]) | AUC of dose-response viability curve (A498 [12]) | AUC of dose-response viability curve (CAKI-1 [13]) | AUC of dose-response viability curve (786-O [14]) | AUC of dose-response viability curve (SN12C [15]) | AUC of dose-response viability curve (UO-31 [16]) | GI50, drug alone (769-P [17]) [µM] | GI50, drug alone (TK-10 [18]) [µM] | GI50, drug alone (ACHN [19]) [µM] | GI50, drug alone (A498 [20]) [µM] | GI50, drug alone (CAKI-1 [21]) [µM] | GI50, drug alone (786-O [22]) [µM] | GI50, drug alone (SN12C [23]) [µM] | GI50, drug alone (UO-31 [24]) [µM]
COCC(=O)NC/C=C/c1ccc2ncnc(Nc3ccc(Oc4ccc(C)nc4)c(C)c3)c2c1 | 0.878 | 0.661 | 0.61 | 1.07 | 0.937 | 0.717 | 0.739 | 1.11 | 3.37 | 3.07 | 3.39 | 4.6 | 3.51 | 2.92 | 3.1 | 5.09 | > 10 | > 10 | > 10 | > 10 | > 10 | > 10 | > 10 | > 10
CCc1cc2c(cc1N1CCC(N3CCOCC3)CC1)C(C)(C)c1[nH]c3cc(C#N)ccc3c1C2=O | 0.922 | 0.612 | 0.366 | 1.06 | 0.428 | 0.655 | 0.801 | 1.02 | 3.67 | 2.93 | 3 | 5.08 | 2.98 | 3 | 3.28 | 6.33 | > 10 | > 10 | 5.47 | > 10 | 5.02 | > 10 | > 10 | > 10
CN1CCN(c2cccc(Nc3nc4c(-c5ccc(S(C)(=O)=O)cc5)cccn4n3)c2)CC1 | 0.782 | 0.298 | 0.293 | 1.13 | 0.244 | 0.585 | 0.599 | 0.707 | 3.49 | 2.82 | 2.65 | 4.91 | 2.85 | 3.18 | 3.13 | 4.6 | > 10 | 3.53 | 1.4 | > 10 | 2.31 | > 10 | > 10 | > 10
CN(C)c1ccc(-c2nc3c(N4CCN(CC(=O)Nc5nccs5)CC4)c(Cl)cnc3[nH]2)cc1 | 0.39 | 0.574 | 0.18 | 0.622 | 0.115 | 0.259 | 0.434 | 0.0202 | 2.85 | 2.91 | 2.58 | 4.21 | 2.57 | 2.24 | 2.76 | 3.93 | 5.51 | > 10 | 1.86 | > 10 | 1.26 | 2.76 | 5.4 | 2.01
Cc1cc(CN2CCN(c3c(Br)cnc4[nH]c(-c5ccc(N6CCN(C)CC6)cc5)nc34)CC2)no1 | 0.0185 | 0.177 | 0.00704 | 0.0157 | 0.00778 | 0.00301 | 0.0135 | 0.0211 | 2.44 | 2.61 | 2.36 | 3.57 | 2.6 | 2.01 | 2.74 | 4.13 | 0.858 | 2.84 | 0.732 | 3.35 | 0.885 | 0.451 | 2.42 | 8.57
O=C(NOCC1CC1)c1ccc(F)c(F)c1Nc1ccc(I)cc1Cl | 0.233 | 0.362 | 0.263 | 0.593 | 0.23 | 0.41 | 0.467 | 0.779 | 2.96 | 2.68 | 2.78 | 3.44 | 3.04 | 2.98 | 2.86 | 4.14 | 5.01 | 4.99 | 3.51 | > 10 | 4.19 | 4.38 | > 10 | > 10
Nc1nc(NCCNc2ncc(-n3ccnc3)c(-c3ccc(Cl)cc3Cl)n2)ccc1[N+](=O)[O-] | 0.0343 | 0.0728 | 0.0311 | 0.701 | 0.211 | 0.013 | 0.455 | 0.0119 | 2.89 | 2.43 | 3.06 | 4.54 | 3.69 | 2.36 | 3.5 | 3.59 | 2.72 | 1.92 | 3.93 | > 10 | 7.77 | 1.24 | 9.82 | 1.65
COCCOc1ccc2c(c1)ncn2-c1ccc2cccc(N3CCC(N)CC3)c2n1 | 0.333 | 0.198 | 0.0176 | 0.0414 | 0.292 | 0.00547 | 0.0384 | 0.00652 | 3.12 | 2.43 | 2.7 | 3.27 | 2.66 | 1.81 | 2.92 | 3.38 | 6.04 | 2.12 | 2.48 | 3.3 | 2.11 | 0.631 | 2.8 | 2.91
NC1(Cc2ccc(Cl)cc2)CCN(c2ncnc3[nH]ccc23)CC1 | 0.432 | 0.284 | 0.287 | 0.905 | 0.348 | 0.0631 | 0.431 | 0.00579 | 3.31 | 3.01 | 3.38 | 4.01 | 3.21 | 2.17 | 3.08 | 4.18 | 8.76 | 4.56 | 5.91 | > 10 | > 10 | 0.631 | 7.35 | 3.8

Reference: the supplement of paper PMC8149375
